From PubChem BioAssay AID1963844 (Molecular Pharmacology Branch, DTP, NCI, 2024)

Test system: 422866-222-R5-J1-PDC complex spheroid viability
Assay: Anticancer human tumor 422866-222-R5-J1-PDC patient-derived pancreatic adenocarcinoma cell line growth inhibition [POLQ]
Settings: for IC50: curve of first compound; for viability, T/C: stronger effect = lower value
How it was run: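 PDC + HUVEC + MSC complex spheroids; POLQ inhibitors ± partner drugs; top conc. at/near clinical Cmax, else 10 microM (SN-38 1 microM), half-log dilutions; 37 degrees C, 5% CO2.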

[1] = second compound 0.0316 µM, first compound 0.0316 µM
[2] = second compound 0.0316 µM, first compound 0.1 µM
[3] = second compound 0.0316 µM, first compound 0.316 µM
[4] = second compound 0.0316 µM, first compound 1 µM
[5] = second compound 0.0316 µM, first compound 3.16 µM
[6] = second compound 0.0316 µM, first compound 10 µM
[7] = second compound 0.1 µM, first compound 0.0316 µM
[8] = second compound 0.1 µM, first compound 0.1 µM
[9] = second compound 0.1 µM, first compound 0.316 µM
[10] = second compound 0.1 µM, first compound 1 µM
[11] = second compound 0.1 µM, first compound 3.16 µM
[12] = second compound 0.1 µM, first compound 10 µM
[13] = second compound 0.316 µM, first compound 0.0316 µM
[14] = second compound 0.316 µM, first compound 0.1 µM
[15] = second compound 0.316 µM, first compound 0.316 µM
[16] = second compound 0.316 µM, first compound 1 µM
[17] = second compound 0.316 µM, first compound 3.16 µM
[18] = second compound 0.316 µM, first compound 10 µM
[19] = second compound 1 µM, first compound 0.0316 µM
[20] = second compound 1 µM, first compound 0.1 µM
[21] = second compound 1 µM, first compound 0.316 µM
[22] = second compound 1 µM, first compound 1 µM
[23] = second compound 1 µM, first compound 3.16 µM
[24] = second compound 1 µM, first compound 10 µM
[25] = second compound 3.16 µM, first compound 0.0316 µM
[26] = second compound 3.16 µM, first compound 0.1 µM
[27] = second compound 3.16 µM, first compound 0.316 µM
[28] = second compound 3.16 µM, first compound 1 µM
[29] = second compound 3.16 µM, first compound 3.16 µM
[30] = second compound 3.16 µM, first compound 10 µM
[31] = second compound 10 µM, first compound 0.0316 µM
[32] = second compound 10 µM, first compound 0.1 µM
[33] = second compound 10 µM, first compound 0.316 µM
[34] = second compound 10 µM, first compound 1 µM
[35] = second compound 10 µM, first compound 3.16 µM
[36] = second compound 10 µM, first compound 10 µM
[37] = second compound 0.0316 µM, first compound 0.00316 µM
[38] = second compound 0.0316 µM, first compound 0.01 µM
[39] = second compound 0.1 µM, first compound 0.00316 µM
[40] = second compound 0.1 µM, first compound 0.01 µM
[41] = second compound 0.316 µM, first compound 0.00316 µM
[42] = second compound 0.316 µM, first compound 0.01 µM
[43] = second compound 1 µM, first compound 0.00316 µM
[44] = second compound 1 µM, first compound 0.01 µM
[45] = second compound 3.16 µM, first compound 0.00316 µM
[46] = second compound 3.16 µM, first compound 0.01 µM
[47] = second compound 10 µM, first compound 0.00316 µM
[48] = second compound 10 µM, first compound 0.01 µM
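Note: spheroids exposed to compounds for one week before readout.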
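Throughout, for viability, T/C: percent of DMSO vehicle wells luminescence so 100% = untreated viability.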

CCc1cc2c(N3CCc4c(cc(Cn5ccnc5)cc4-c4cn(C)nc4C(F)(F)F)C3=O)cc(C)nc2c(OC)n1 + Cc1cccc(N(C)C(=O)C2C(O)CCN2c2nc(C)cc(C(F)(F)F)c2C#N)c1
IC50 (second compound 0.0316 µM): > 10 µM
IC50 (second compound 0.1 µM): > 10 µM
IC50 (second compound 0.316 µM): > 10 µM
IC50 (second compound 1 µM): > 10 µM
IC50 (second compound 3.16 µM): > 10 µM
IC50 (second compound 10 µM): > 10 µM
viability, T/C [1]: 78.4%
viability, T/C [2]: 73.7%
viability, T/C [3]: 93.1%
viability, T/C [4]: 99.6%
viability, T/C [5]: 104%
viability, T/C [6]: 98%
viability, T/C [7]: 84.6%
viability, T/C [8]: 83.5%
viability, T/C [9]: 92.2%
viability, T/C [10]: 88.7%
viability, T/C [11]: 101%
viability, T/C [12]: 119%
viability, T/C [13]: 91.8%
viability, T/C [14]: 88.7%
viability, T/C [15]: 81.2%
viability, T/C [16]: 94.9%
viability, T/C [17]: 104%
viability, T/C [18]: 94.4%
viability, T/C [19]: 84.5%
viability, T/C [20]: 82.7%
viability, T/C [21]: 86.6%
viability, T/C [22]: 82.8%
viability, T/C [23]: 93.8%
viability, T/C [24]: 93.5%
viability, T/C [25]: 86.3%
viability, T/C [26]: 85.8%
viability, T/C [27]: 92.4%
viability, T/C [28]: 91.6%
viability, T/C [29]: 99.8%
viability, T/C [30]: 90.6%
viability, T/C [31]: 88.9%
viability, T/C [32]: 88.5%
viability, T/C [33]: 93.9%
viability, T/C [34]: 78.2%
viability, T/C [35]: 95.8%
viability, T/C [36]: 94.8%

Cn1ncnc1[C@H]1c2n[nH]c(=O)c3cc(F)cc(c23)N[C@@H]1c1ccc(F)cc1 + Cc1cccc(N(C)C(=O)C2C(O)CCN2c2nc(C)cc(C(F)(F)F)c2C#N)c1
IC50 (second compound 0.0316 µM): > 0.1 µM
IC50 (second compound 0.1 µM): > 0.1 µM
IC50 (second compound 0.316 µM): > 0.1 µM
IC50 (second compound 1 µM): > 0.1 µM
IC50 (second compound 3.16 µM): > 0.1 µM
IC50 (second compound 10 µM): > 0.1 µM
viability, T/C (second compound 0.0316 µM, first compound 0.000316 µM): 93.3%
viability, T/C (second compound 0.0316 µM, first compound 0.001 µM): 97.3%
viability, T/C [37]: 93.7%
viability, T/C [38]: 89%
viability, T/C [1]: 76.5%
viability, T/C [2]: 82.1%
viability, T/C (second compound 0.1 µM, first compound 0.000316 µM): 116%
viability, T/C (second compound 0.1 µM, first compound 0.001 µM): 95.2%
viability, T/C [39]: 90%
viability, T/C [40]: 93.2%
viability, T/C [7]: 81.8%
viability, T/C [8]: 65.9%
viability, T/C (second compound 0.316 µM, first compound 0.000316 µM): 108%
viability, T/C (second compound 0.316 µM, first compound 0.001 µM): 97.3%
viability, T/C [41]: 90.6%
viability, T/C [42]: 88.4%
viability, T/C [13]: 81.4%
viability, T/C [14]: 83.1%
viability, T/C (second compound 1 µM, first compound 0.000316 µM): 93.9%
viability, T/C (second compound 1 µM, first compound 0.001 µM): 90.2%
viability, T/C [43]: 93.6%
viability, T/C [44]: 89%
viability, T/C [19]: 79.3%
viability, T/C [20]: 77.2%
viability, T/C (second compound 3.16 µM, first compound 0.000316 µM): 95.6%
viability, T/C (second compound 3.16 µM, first compound 0.001 µM): 101%
viability, T/C [45]: 94.2%
viability, T/C [46]: 77.3%
viability, T/C [25]: 87.4%
viability, T/C [26]: 91.9%
viability, T/C (second compound 10 µM, first compound 0.000316 µM): 95.1%
viability, T/C (second compound 10 µM, first compound 0.001 µM): 97.7%
viability, T/C [47]: 102%
viability, T/C [48]: 72.5%
viability, T/C [31]: 82.9%
viability, T/C [32]: 83.2%

CCc1c2c(nc3ccc(O)cc13)-c1cc3c(c(=O)n1C2)COC(=O)[C@]3(O)CC + COC1C(OC(N)=O)C(O)C(Oc2ccc3c(O)c(NC(=O)c4ccc(O)c(CC=C(C)C)c4)c(=O)oc3c2C)OC1(C)C
IC50 (second compound 0.0316 µM): < 0.00316 µM
IC50 (second compound 0.1 µM): < 0.00316 µM
IC50 (second compound 0.316 µM): < 0.00316 µM
IC50 (second compound 1 µM): < 0.00316 µM
IC50 (second compound 3.16 µM): < 0.00316 µM
IC50 (second compound 10 µM): < 0.00316 µM
viability, T/C [37]: 44.1%
viability, T/C [38]: 34.4%
viability, T/C [1]: 33.4%
viability, T/C [2]: 30.8%
viability, T/C [3]: 28.7%
viability, T/C [4]: 19.7%
viability, T/C [39]: 41.3%
viability, T/C [40]: 34.8%
viability, T/C [7]: 32%
viability, T/C [8]: 30.6%
viability, T/C [9]: 34.6%
viability, T/C [10]: 18.6%
viability, T/C [41]: 41.1%
viability, T/C [42]: 35.9%
viability, T/C [13]: 30.9%
viability, T/C [14]: 29.6%
viability, T/C [15]: 32.9%
viability, T/C [16]: 16.7%
viability, T/C [43]: 41.8%
viability, T/C [44]: 30.9%
viability, T/C [19]: 30.5%
viability, T/C [20]: 33.8%
viability, T/C [21]: 32.6%
viability, T/C [22]: 19%
viability, T/C [45]: 41%
viability, T/C [46]: 34.8%
viability, T/C [25]: 36%
viability, T/C [26]: 32.7%
viability, T/C [27]: 34.3%
viability, T/C [28]: 22.5%
viability, T/C [47]: 39.4%
viability, T/C [48]: 34.2%
viability, T/C [31]: 31.6%
viability, T/C [32]: 32.1%
viability, T/C [33]: 31.1%
viability, T/C [34]: 19.9%

O=C(Nc1ccc(O)c(NS(=O)(=O)c2ccc(F)cc2)c1)c1ccc(-c2ccccc2)cc1 + Cc1cccc(N(C)C(=O)C2C(O)CCN2c2nc(C)cc(C(F)(F)F)c2C#N)c1
IC50 (second compound 0.0316 µM): > 10 µM
IC50 (second compound 0.1 µM): > 10 µM
IC50 (second compound 0.316 µM): > 10 µM
IC50 (second compound 1 µM): > 10 µM
IC50 (second compound 3.16 µM): > 10 µM
IC50 (second compound 10 µM): > 10 µM
viability, T/C [1]: 94.2%
viability, T/C [2]: 89.3%
viability, T/C [3]: 73.9%
viability, T/C [4]: 89.3%
viability, T/C [5]: 99.8%
viability, T/C [6]: 121%
viability, T/C [7]: 85.4%
viability, T/C [8]: 89.8%
viability, T/C [9]: 89%
viability, T/C [10]: 91.3%
viability, T/C [11]: 95.5%
viability, T/C [12]: 116%
viability, T/C [13]: 94.3%
viability, T/C [14]: 99%
viability, T/C [15]: 90.9%
viability, T/C [16]: 101%
viability, T/C [17]: 90.7%
viability, T/C [18]: 106%
viability, T/C [19]: 96%
viability, T/C [20]: 94.5%
viability, T/C [21]: 99.2%
viability, T/C [22]: 88.9%
viability, T/C [23]: 86.3%
viability, T/C [24]: 113%
viability, T/C [25]: 97.2%
viability, T/C [26]: 91.8%
viability, T/C [27]: 89.2%
viability, T/C [28]: 92.9%
viability, T/C [29]: 94.2%
viability, T/C [30]: 118%
viability, T/C [31]: 71.9%
viability, T/C [32]: 82.3%
viability, T/C [33]: 87.3%
viability, T/C [34]: 86.8%
viability, T/C [35]: 97.6%
viability, T/C [36]: 103%
